{"source": "patent US20230365592A1", "about": "(Agios Pharmaceuticals, Inc., priority 2022, published 2023)", "data": [{"target": "T1, human PAH with the R408W mutation (Homo sapiens, UniProt P00439, R408W)", "T1 construct": "expressed in transfected cells", "T1 sequence (P00439 1-452 R408W)": "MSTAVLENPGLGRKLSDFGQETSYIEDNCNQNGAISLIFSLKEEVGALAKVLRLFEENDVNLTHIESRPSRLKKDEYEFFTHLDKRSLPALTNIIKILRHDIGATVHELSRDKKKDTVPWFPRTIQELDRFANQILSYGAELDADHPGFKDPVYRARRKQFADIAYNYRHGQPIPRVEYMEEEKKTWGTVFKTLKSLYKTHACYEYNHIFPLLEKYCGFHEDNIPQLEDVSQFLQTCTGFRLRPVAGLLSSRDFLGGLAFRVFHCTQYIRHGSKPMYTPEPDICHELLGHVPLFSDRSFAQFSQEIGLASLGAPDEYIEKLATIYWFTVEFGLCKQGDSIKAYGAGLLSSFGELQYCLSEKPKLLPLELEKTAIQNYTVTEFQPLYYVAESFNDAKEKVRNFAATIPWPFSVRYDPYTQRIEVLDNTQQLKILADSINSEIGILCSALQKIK", "assay": "Cell Based Phenylalanine Flux Assay;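 also: after compound treatment, cells received sepiapterin plus isotope-labelled Phenylalanine for 4 hours, then labelled Tyrosine in the medium was quantified, 10-point 2-fold dilution series run in duplicate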", "settings": "A375 cells expressing human R408W PAH; 24 hrs compound incubation; 13C-Tyrosine by LC-MS; average where tested multiple times; read-out: AC50", "units": {"AC50": "nM"}, "values": [{"molecule": "Cc1nn(C)cc1-c1nnc(C(=O)N2CCc3[nH]cnc3[C@H]2c2cc3cccc(C(F)F)n3n2)o1", "note": "[Example 1582, (S)-(4-(7-(difluoromethyl)pyrazolo[1,5-a]pyridin-2-yl)-6,7-dihydro-1H-imidazo[4,5-c]pyridin-5(4H)-yl)(5-(1,3-dimethyl-1H-pyrazol-4-yl)-1,3,4-oxadiazol-2-yl)methanone]", "AC50": "500 to 1000"}, {"molecule": "Cc1nn(C)cc1-c1nnc(C(=O)N2CCc3[nH]cnc3[C@@H]2c2cc3cccc(C(F)F)n3n2)o1", "note": "[Example 1583, (R)-(4-(7-(difluoromethyl)pyrazolo[1,5-a]pyridin-2-yl)-6,7-dihydro-1H-imidazo[4,5-c]pyridin-5(4H)-yl)(5-(1,3-dimethyl-1H-pyrazol-4-yl)-1,3,4-oxadiazol-2-yl)methanone]", "AC50": "> 5000"}, {"molecule": "Cc1cnn(C)c1-c1nnc(C(=O)N2CCc3[nH]cnc3[C@H]2c2cc3cccc(C(F)F)n3n2)o1", "note": "[Example 1584, (S)-(4-(7-(difluoromethyl)pyrazolo[1,5-a]pyridin-2-yl)-6,7-dihydro-1H-imidazo[4,5-c]pyridin-5(4H)-yl)(5-(1,4-dimethyl-1H-pyrazol-5-yl)-1,3,4-oxadiazol-2-yl)methanone]", "AC50": "500 to 1000"}, {"molecule": "Cc1cnn(C)c1-c1nnc(C(=O)N2CCc3[nH]cnc3[C@@H]2c2cc3cccc(C(F)F)n3n2)o1", "note": "[Example 1585, (R)-(4-(7-(difluoromethyl)pyrazolo[1,5-a]pyridin-2-yl)-6,7-dihydro-1H-imidazo[4,5-c]pyridin-5(4H)-yl)(5-(1,4-dimethyl-1H-pyrazol-5-yl)-1,3,4-oxadiazol-2-yl)methanone]", "AC50": "> 5000"}, {"molecule": "Cc1cccn2nc([C@H]3c4nc[nH]c4CCN3c3nnc(C4CC4)o3)cc12", "note": "[Example 1588, (R)-2-cyclopropyl-5-(4-(4-methylpyrazolo[1,5-a]pyridin-2-yl)-6,7-dihydro-1H-imidazo[4,5-c]pyridin-5(4H)-yl)-1,3,4-oxadiazole]", "AC50": "> 5000"}, {"molecule": "Cc1cccn2nc([C@@H]3c4nc[nH]c4CCN3c3nnc(C4CC4)o3)cc12", "note": "[Example 1589, (S)-2-cyclopropyl-5-(4-(4-methylpyrazolo[1,5-a]pyridin-2-yl)-6,7-dihydro-1H-imidazo[4,5-c]pyridin-5(4H)-yl)-1,3,4-oxadiazole]", "AC50": "500 to 1000"}, {"molecule": "c1cnc(N2CCc3[nH]cnc3[C@@H]2c2cc3ccccn3n2)nc1", "note": "[Example 1593, (R)-4-(pyrazolo[1,5-a]pyridin-2-yl)-5-(pyrimidin-2-yl)-4,5,6,7-tetrahydro-1H-imidazo[4,5-c]pyridine]", "AC50": "1000 to 5000"}, {"molecule": "Cc1cccc(-c2nnc(C(=O)N3CCc4[nH]cnc4[C@H]3c3cc4cccc(C(F)F)n4n3)o2)n1", "note": "[Example 1594, (S)-(4-(7-(difluoromethyl)pyrazolo[1,5-a]pyridin-2-yl)-6,7-dihydro-1H-imidazo[4,5-c]pyridin-5(4H)-yl)(5-(6-methylpyridin-2-yl)-1,3,4-oxadiazol-2-yl)methanone]", "AC50": "< 500"}, {"molecule": "Cc1cccc(-c2nnc(C(=O)N3CCc4[nH]cnc4[C@@H]3c3cc4cccc(C(F)F)n4n3)o2)n1", "note": "[Example 1595, (R)-(4-(7-(difluoromethyl)pyrazolo[1,5-a]pyridin-2-yl)-6,7-dihydro-1H-imidazo[4,5-c]pyridin-5(4H)-yl)(5-(6-methylpyridin-2-yl)-1,3,4-oxadiazol-2-yl)methanone]", "AC50": "> 5000"}, {"molecule": "Cn1ccc(-c2ccc3c(C(=O)N4CCc5[nH]cnc5[C@H]4c4cc5c(C(F)(F)F)cccn5n4)cnn3c2)n1", "note": "[Example 1596, (S)-(6-(1-methyl-1H-pyrazol-3-yl)pyrazolo[1,5-a]pyridin-3-yl)(4-(4-(trifluoromethyl)pyrazolo[1,5-a]pyridin-2-yl)-6,7-dihydro-1H-imidazo[4,5-c]pyridin-5(4H)-yl)methanone]", "AC50": "< 500"}, {"molecule": "Cn1ccc(-c2ccc3c(C(=O)N4CCc5[nH]cnc5[C@@H]4c4cc5c(C(F)(F)F)cccn5n4)cnn3c2)n1", "note": "[Example 1597, (R)-(6-(1-methyl-1H-pyrazol-3-yl)pyrazolo[1,5-a)pyridin-3-yl)(4-(4-(trifluoromethyl)pyrazolo[1,5-a]pyridin-2-yl)-6,7-dihydro-1H-imidazo[4,5-c]pyridin-5(4H)-yl)methanone]", "AC50": "> 5000"}, {"molecule": "Cc1cccn2nc([C@@H]3c4nc[nH]c4CCN3C(=O)c3nnc(C4CC(F)(F)C4)o3)cc12", "note": "[Example 1598, (S)-(5-(3,3-difluorocyclobutyl)-1,3,4-oxadiazol-2-yl)(4-(4-methylpyrazolo[1,5-a]pyridin-2-yl)-6,7-dihydro-1H-imidazo[4,5-c]pyridin-5(4H)-yl)methanone]", "AC50": "500 to 1000"}, {"molecule": "Cc1cccn2nc([C@H]3c4nc[nH]c4CCN3C(=O)c3nnc(C4CC(F)(F)C4)o3)cc12", "note": "[Example 1599, (R)-(5-(3,3-difluorocyclobutyl)-1,3,4-oxadiazol-2-yl)(4-(4-methylpyrazolo[1,5-a]pyridin-2-yl)-6,7-dihydro-1H-imidazo[4,5-c]pyridin-5(4H)-yl)methanone]", "AC50": "> 5000"}, {"molecule": "O=C(c1nnc(C2CC(F)(F)C2)o1)N1CCc2[nH]cnc2[C@H]1c1cc2c(C(F)(F)F)cccn2n1", "note": "[Example 1600, (S)-(5-(3,3-difluorocyclobutyl)-1,3,4-oxadiazol-2-yl)(4-(4-(trifluoromethyl)pyrazolo[1,5-a]pyridin-2-yl)-6,7-dihydro-1H-imidazo[4,5-c]pyridin-5(4H)-yl)methanone]", "AC50": "500 to 1000"}, {"molecule": "O=C(c1nnc(C2CC(F)(F)C2)o1)N1CCc2[nH]cnc2[C@H]1c1cc2c(C(F)F)cccn2n1", "note": "[Example 1602, (S)-(5-(3,3-difluorocyclobutyl)-1,3,4-oxadiazol-2-yl)(4-(4-(difluoromethyl)pyrazolo[1,5-a]pyridin-2-yl)-6,7-dihydro-1H-imidazo[4,5-c]pyridin-5(4H)-yl)methanone]", "AC50": "500 to 1000"}, {"molecule": "O=C(c1nnc(C2CC(F)(F)C2)o1)N1CCc2[nH]cnc2[C@H]1c1cc2c(F)cccn2n1", "note": "[Example 1604, (S)-(5-(3,3-difluorocyclobutyl)-1,3,4-oxadiazol-2-yl)(4-(4-fluoropyrazolo[1,5-a)pyridin-2-yl)-6,7-dihydro-1H-imidazo[4,5-c]pyridin-5(4H)-yl)methanone]", "AC50": "500 to 1000"}, {"molecule": "O=C(c1nnc(C2CC(F)(F)C2)o1)N1CCc2[nH]cnc2[C@@H]1c1cc2c(F)cccn2n1", "note": "[Example 1605, (R)-(5-(3,3-difluorocyclobutyl)-1,3,4-oxadiazol-2-yl)(4-(4-fluoropyrazolo[1,5-a]pyridin-2-yl)-6,7-dihydro-1H-imidazo[4,5-c]pyridin-5(4H)-yl)methanone]", "AC50": "> 5000"}, {"molecule": "FC(F)c1cccn2nc([C@@H]3c4nc[nH]c4CCN3c3nnc(C4CC4)o3)cc12", "note": "[Example 1607, (S)-2-cyclopropyl-5-(4-(4-(difluoromethyl)pyrazolo[1,5-a]pyridin-2-yl)-6,7-dihydro-1H-imidazo[4,5-c]pyridin-5(4H)-yl)-1,3,4-oxadiazole]", "AC50": "500 to 1000"}, {"molecule": "Cn1nccc1-c1nnc(C(=O)N2CCc3[nH]cnc3[C@H]2c2cc3cccc(C(F)F)n3n2)o1", "note": "[Example 1608, (S)-(4-(7-(difluoromethyl)pyrazolo[1,5-a]pyridin-2-yl)-6,7-dihydro-1H-imidazo[4,5-c]pyridin-5(4H)-yl)(5-(1-methyl-1H-pyrazol-5-yl)-1,3,4-oxadiazol-2-yl)methanone]", "AC50": "500 to 1000"}, {"molecule": "Cn1nccc1-c1nnc(C(=O)N2CCc3[nH]cnc3[C@@H]2c2cc3cccc(C(F)F)n3n2)o1", "note": "[Example 1609, (R)-(4-(7-(difluoromethyl)pyrazolo[1,5-a]pyridin-2-yl)-6,7-dihydro-1H-imidazo[4,5-c]pyridin-5(4H)-yl)(5-(1-methyl-1H-pyrazol-5-yl)-1,3,4-oxadiazol-2-yl)methanone]", "AC50": "> 5000"}, {"molecule": "FC(F)(F)c1cccn2nc([C@@H]3c4nc[nH]c4CCN3c3nnc(-c4ccccn4)o3)cc12", "note": "[Example 1610, (S)-2-(pyridin-2-yl)-5-(4-(4-(trifluoromethyl)pyrazolo[1,5-a]pyridin-2-yl)-6,7-dihydro-1H-imidazo[4,5-c]pyridin-5(4H)-yl)-1,3,4-oxadiazole]", "AC50": "500 to 1000"}, {"molecule": "Fc1cccn2nc([C@H]3c4nc[nH]c4CCN3c3nnc(-c4ccccn4)o3)cc12", "note": "[Example 1612, (R)-2-(4-(4-fluoropyrazolo[1,5-a]pyridin-2-yl)-6,7-dihydro-1H-imidazo[4,5-c]pyridin-5(4H)-yl)-5-(pyridin-2-yl)-1,3,4-oxadiazole]", "AC50": "> 5000"}, {"molecule": "Fc1cccn2nc([C@@H]3c4nc[nH]c4CCN3c3nnc(-c4ccccn4)o3)cc12", "note": "[Example 1613, (S)-2-(4-(4-fluoropyrazolo[1,5-a]pyridin-2-yl)-6,7-dihydro-1H-imidazo[4,5-c]pyridin-5(4H)-yl)-5-(pyridin-2-yl)-1,3,4-oxadiazole]", "AC50": "< 500"}, {"molecule": "O=C(c1cnn2cc(N3CCOCC3)ccc12)N1CCc2[nH]cnc2[C@H]1c1cc2c(C(F)(F)F)cccn2n1", "note": "[Example 1614, (S)-(6-morpholinopyrazolo[1,5-a]pyridin-3-yl)(4-(4-(trifluoromethyl)pyrazolo[1,5-a]pyridin-2-yl)-6,7-dihydro-1H-imidazo[4,5-c]pyridin-5(4H)-yl)methanone]", "AC50": "500 to 1000"}, {"molecule": "Fc1cccn2nc([C@@H]3c4nc[nH]c4CCN3c3ncccn3)cc12", "note": "[Example 1616, (S)-4-(4-fluoropyrazolo[1,5-a]pyridin-2-yl)-5-(pyrimidin-2-yl)-4,5,6,7-tetrahydro-1H-imidazo[4,5-c]pyridine]", "AC50": "< 500"}, {"molecule": "Fc1cccn2nc([C@H]3c4nc[nH]c4CCN3c3ncccn3)cc12", "note": "[Example 1617, (R)-4-(4-fluoropyrazolo[1,5-a]pyridin-2-yl)-5-(pyrimidin-2-yl)-4,5,6,7-tetrahydro-1H-imidazo[4,5-c]pyridine]", "AC50": "> 5000"}]}]}
